In patent publication US7659284B2, “Thiazolopyridine kinase inhibitors” (Janssen Pharmaceutica NV, priority 2004, dated 2010):
“And” between values parts separate entries of the source, which are not always exact repeats. Equal entries are not always repeated.

Experiments:
Assay type in all cases: biochemical
LYN (m) = LYN (m) (Mus musculus, UniProt P25911); experiment: Lyn Kinase Assay (m); settings: for inhibition at 1 µM: test concentration (1) 1 μM, read-out: LYN percent inhibition (m)
Lyn kinase (human) = target: T1, Lyn kinase (human) (Homo sapiens, UniProt P07948); experiment: Lyn Kinase Assay (h); settings: for IC50: (h) human Lyn, 5 μM ATP; for inhibition at 1 µM: test concentration (1) 1 μM
T1 construct: purchased Upstate Biotechnology, Lake Placid, N.Y
T1 sequence (P07948 whole entry): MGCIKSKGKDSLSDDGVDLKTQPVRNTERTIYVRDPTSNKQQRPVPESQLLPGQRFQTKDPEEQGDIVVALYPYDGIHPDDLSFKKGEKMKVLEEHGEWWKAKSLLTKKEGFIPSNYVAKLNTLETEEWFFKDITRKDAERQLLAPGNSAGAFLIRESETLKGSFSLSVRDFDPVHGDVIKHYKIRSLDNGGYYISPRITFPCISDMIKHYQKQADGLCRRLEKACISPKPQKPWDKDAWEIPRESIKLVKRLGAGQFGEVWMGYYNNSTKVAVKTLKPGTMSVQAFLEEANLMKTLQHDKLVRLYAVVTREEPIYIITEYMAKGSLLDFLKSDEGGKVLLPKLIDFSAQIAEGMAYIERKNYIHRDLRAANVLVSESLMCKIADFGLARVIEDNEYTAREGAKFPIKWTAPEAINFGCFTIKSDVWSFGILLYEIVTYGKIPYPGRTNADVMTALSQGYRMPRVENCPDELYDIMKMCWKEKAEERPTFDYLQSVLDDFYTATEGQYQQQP
Procedure: A mixture of a 10× kinase buffer (500 mM MOPS at pH 7.5, 1 mM EGTA, 1 mM Sodium Vanadate, 1% β-mercaptoethanol and 100 mM Magnesium Acetate), ATP (5 μM final from a 10 mM stock), polyGluTyr (0.1 mg/mL final from a 1 mg/mL stock), γ-^33P ATP (10 μCi/μL stock) and water (20 μL/well) was added to each well of a Streptavidin Flashplate.
Test compound in 100% DMSO (0.5 μL) was added to the appropriate wells. Diluted Lyn kinase (human) (Upstate Biotechnology, Lake Placid, N.Y.) (diluted in a buffer consisting of 50 mM Tris at pH 7.5, 0.1 mM EGTA, Sodium Vanadate (0.1 mM), β-mercaptoethanol (0.1%) and 1 mg/mL bovine serum albumin) (2.5 μL) was added to the wells to initiate the reactions.
The reaction plates were incubated at 30° C. for 40 min. The reaction was terminated by the addition of a 3% phosphoric acid solution (5 μL). The reaction product (10 μL) was spotted onto a P30 filtermat and washed for 5 minutes in phosphoric acid (75 mM). The wash sequence was repeated two more times, followed with one final wash in methanol. The plates were then dried, sealed and read on the TopCount scintillation counter after adding 30 μL scintillation fluid.
The percent inhibitions and IC50 values were derived according to the procedure described in Example 52. For those compounds without an IC50, the percent inhibition results are shown at a test concentration of ^(1) 1 μM or ^(2) 1.6 μM.

EGFR = target: T2, EGFR (Homo sapiens, UniProt P00533); experiment: EGFR Kinase Assay (GST-EGFR, 33P-ATP, Streptavidin Flashplate); settings: for IC50: GST-EGFR intracellular portion, 5 μM ATP
T2 construct: started at nucleotide 2189 (corresponding to amino acid 667) and ended at the termination codon; made in house; host or cells: Sf9 insect cells (baculovirus)
T2 sequence (P00533 667-1210 limits assumed): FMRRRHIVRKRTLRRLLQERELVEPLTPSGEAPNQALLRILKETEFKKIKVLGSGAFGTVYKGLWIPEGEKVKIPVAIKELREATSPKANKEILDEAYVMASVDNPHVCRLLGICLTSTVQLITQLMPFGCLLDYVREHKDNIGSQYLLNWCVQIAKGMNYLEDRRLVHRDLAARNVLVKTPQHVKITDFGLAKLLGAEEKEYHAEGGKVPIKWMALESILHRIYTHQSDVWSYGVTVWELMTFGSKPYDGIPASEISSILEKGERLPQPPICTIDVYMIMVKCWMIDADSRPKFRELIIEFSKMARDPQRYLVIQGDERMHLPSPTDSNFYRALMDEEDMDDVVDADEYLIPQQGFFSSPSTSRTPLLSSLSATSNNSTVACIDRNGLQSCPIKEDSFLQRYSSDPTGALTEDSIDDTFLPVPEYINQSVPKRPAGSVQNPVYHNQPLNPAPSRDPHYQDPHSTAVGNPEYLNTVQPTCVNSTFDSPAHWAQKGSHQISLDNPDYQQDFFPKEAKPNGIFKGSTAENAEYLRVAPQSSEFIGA
Excerpt: The EGFR kinase used was a fusion of Glutathione-S-Transferase (GST) and a PCR amplified intracellular portion of EGFR (NM_005228). The intracellular portion of EGFR started at nucleotide 2189 (corresponding to amino acid 667) and ended at the termination codon. The portion was PCR amplified with primers that added the lambda attB sequences to each end, recombined into an entry vector, then into a GST destination vector (as described in Gateway Technologies Manual by Invitrogen Corporation, Carlsbad, Calif.).
The destination vector was recombined in the DH10BAC strain of bacteria to produce a bacmid. The bacmid was transfected into Sf 9 cells and the supernatant containing the baculovirus was collected. The GSTEGFR protein was purified using large cultures of Sf 9 cells infected with stock virus. After an appropriate period of time, the cells were collected and lysed. The GSTEGFR was then purified from the lysate on Glutathione-Sepharose columns (as described by Amersham Biosciences, Buckinghamshire, United Kingdom).
The EGFR substrate was prepared by biotinylating polyGluTyr (128 mg) (Sigma, St. Louis, Mo.) in a 1×PBS buffer incubated together with a 12-fold molar excess of Sulfo-NHS-LC-Biotin on ice for at least 2 hrs. The free biotin was separated from the biotinylated polyGluTyr on a gel filtration column.
A mixture of a 10× kinase buffer (500 mM Tris at pH 8.0, 100 mM Magnesium Chloride and 1 mM Sodium Vanadate), DTT (1 mM final from 500 mM stock), ATP (5 μM final from 10 mM stock), biotinylated polyGluTyr (10 μg/μL stock), γ-^33P ATP (10 μCi/μL stock) and water was added to each well (90 μL/well) of a Streptavidin Flashplate (Perkin Elmer, Wellesley, Mass.).
Test compound in 100% DMSO (2 μL) was added to the appropriate wells. Diluted GSTEGFR (1:300 dilution in 50 mM Tris at pH 8.0 and 0.1% bovine serum albumin) (10 μL) was added to the wells to initiate the reactions.
The plates were incubated at 30° C. for 1 hr with shaking. The reacted contents were removed and the plates were sequentially washed three times with a 1×PBS stop buffer (300 μL without Magnesium and Calcium) and 100 mM EDTA. After the final wash, the same stop buffer (200 μL) was added to the wells. The plates were then sealed and read on the TopCount scintillation counter.
Test compounds were assayed in triplicate at 16 concentrations at half-log dilutions starting at 200 uM. A maximum and minimum signal for the assay was determined on each plate. The percent inhibition of a test compound was calculated accord to the formula
For a series of test concentrations, the IC50 was derived by graphing percent inhibition against the log of the concentrations tested for a given compound. For those compounds without an IC50, the percent inhibition results are shown at a test concentration of 2 μM.

c-Src kinase (human) = target: T3, c-Src kinase (human) (Homo sapiens, UniProt P12931); experiment: c-Src Kinase Assay; settings: for IC50: human c-Src, 5 μM ATP; for inhibition at 1 µM: test concentration (1) 1 μM, read-out: c-SRC percent inhibition
T3 construct: purchased Upstate Biotechnology, Lake Placid, N.Y
T3 sequence (P12931 whole entry): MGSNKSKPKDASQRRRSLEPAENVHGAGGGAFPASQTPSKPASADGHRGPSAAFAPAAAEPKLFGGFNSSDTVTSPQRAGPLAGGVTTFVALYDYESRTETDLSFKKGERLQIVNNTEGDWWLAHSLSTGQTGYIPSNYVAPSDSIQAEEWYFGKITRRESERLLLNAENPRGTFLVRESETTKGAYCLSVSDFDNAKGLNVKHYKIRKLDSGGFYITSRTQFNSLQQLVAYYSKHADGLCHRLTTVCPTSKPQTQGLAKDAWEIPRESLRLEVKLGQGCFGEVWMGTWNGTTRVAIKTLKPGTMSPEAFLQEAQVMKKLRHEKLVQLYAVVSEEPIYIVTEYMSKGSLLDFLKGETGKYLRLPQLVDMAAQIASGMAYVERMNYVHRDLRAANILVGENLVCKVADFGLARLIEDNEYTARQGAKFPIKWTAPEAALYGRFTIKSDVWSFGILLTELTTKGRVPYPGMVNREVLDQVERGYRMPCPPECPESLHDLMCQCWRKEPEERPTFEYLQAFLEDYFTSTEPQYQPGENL
Procedure: […] a 10× kinase buffer (80 mM MOPS at pH 7.0, 2 mM EDTA and 100 mM Magnesium Chloride), ATP (5 μM final from a 10 mM stock), a Cdc2 peptide KVEKIGEGTYGVVYK (100 μM final from a 2.5 mM stock), γ-^33P ATP (10 μCi/μL stock) and water (20 μL/well) was added to each well of a Streptavidin Flashplate.
Test compound in 100% DMSO (0.5 μL) was added to the appropriate wells. Diluted c-Src kinase (human) (Upstate Biotechnology, Lake Placid, N.Y.) (diluted in a buffer consisting of 20 mM MOPS at pH 7.0, 1 mM EDTA, β-mercaptoethanol (0.1%), Brij-35 (0.01%), glycerol (5%), and 1 mg/mL bovine serum albumin) (2.5 μL) was added to the wells to initiate the reactions. The reaction plates were incubated at 30° C. for 40 min. The reaction was terminated by the addition of a 3% phosphoric acid solution (5 μL). The reaction product (10 μL) was spotted onto a P30 filtermat and washed for 5 minutes in phosphoric acid (75 mM). The wash sequence was repeated two more times, followed with one final wash in methanol. The plates were then dried, sealed and read on the TopCount scintillation counter after adding 30 μL scintillation fluid.
The percent inhibitions and IC50 values were derived according to the procedure described in Example 52. For those compounds without an IC50, the percent inhibition results are shown at a test concentration of ^(1)1 μM or ^(2)1.6 μM.

HER-2 = target: T4, HER-2 (Homo sapiens, UniProt P04626); experiment: HER-2 Kinase Assay; settings: GST-HER2 kinase, 1 μM ATP
T4 construct: the nucleotides encoding amino acids 679 to 1255 of HER-2; HIS6 with thrombin site (N); purchased Proqinase (Freiburg, Germany)
T4 sequence (P04626 679-1255): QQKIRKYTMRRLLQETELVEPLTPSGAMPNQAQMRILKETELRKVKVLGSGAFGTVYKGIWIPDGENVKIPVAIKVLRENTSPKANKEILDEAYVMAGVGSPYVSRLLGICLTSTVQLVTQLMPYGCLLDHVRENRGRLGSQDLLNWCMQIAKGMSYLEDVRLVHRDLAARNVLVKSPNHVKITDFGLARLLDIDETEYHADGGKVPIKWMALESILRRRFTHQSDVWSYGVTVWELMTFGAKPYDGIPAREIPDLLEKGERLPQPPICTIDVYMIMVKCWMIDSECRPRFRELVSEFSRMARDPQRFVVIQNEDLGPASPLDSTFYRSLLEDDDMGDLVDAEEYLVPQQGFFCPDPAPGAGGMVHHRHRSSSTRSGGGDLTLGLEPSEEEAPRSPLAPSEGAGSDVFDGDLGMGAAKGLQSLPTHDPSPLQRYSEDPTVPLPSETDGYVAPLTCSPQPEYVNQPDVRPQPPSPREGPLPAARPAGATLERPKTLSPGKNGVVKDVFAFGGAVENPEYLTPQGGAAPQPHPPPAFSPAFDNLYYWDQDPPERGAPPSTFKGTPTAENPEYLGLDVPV
Procedure: The HER-2 kinase used was purified at Proqinase (Freiburg, Germany) from a construct that consisted of a fusion of GST (Glutathione-S-Transferase), HIS6-Thrombin and the nucleotides encoding amino acids 679 to 1255 of HER-2.
A mixture of a 10× kinase reaction buffer (600 mM Hepes at pH 7.5, 30 mM Magnesium Chloride, 0.03 mM Sodium Vanadate and 500 μg/mL PEG 20,000), DTT (1.2 mM final from a 10 mM stock), ATP (1 μM from a 10 mM stock), biotinylated polyGluTyr (1.5 ng/μL final from stock of 1 μg/μL prepared by Upstate Biotechnologies, Lake Placid, N.Y.), Manganese Chloride (3 mM final from a 1 M stock), γy-^33P-ATP (10 μCi/μL stock) and water (70 μL/well) was added to each well of a Streptavidin Flashplate (Cat. # SMP103, NEN, Boston, Mass.).
Test compound stock (1 μL) was added to the appropriate wells. Diluted GSTHER2 kinase (6.7 ng/μL diluted into 50 mM Tris-HCl at pH 8.0 and 0.1% bovine serum albumin) (30 μL) was added (total volume of 200 ng/well) to initiate the reactions.
The reaction plates were incubated at 30° C. for 1 hr. The reaction was terminated by aspirating the reaction mixture from the plate wells and washing the wells three times with a 1×PBS stop buffer (300 μL) and 100 mM EDTA. After the final wash, the same stop buffer (200 μL) was again added to the wells. The plates were then sealed and read on the TopCount scintillation counter.
The IC50 was derived according to the procedure described in Example 52. For those compounds without an IC50, the percent inhibition results are shown at a test concentration of 1 μM.

[1] = (h), read-out: LYN percent inhibition (h)

Sequence of LYN (m) (P25911 whole entry): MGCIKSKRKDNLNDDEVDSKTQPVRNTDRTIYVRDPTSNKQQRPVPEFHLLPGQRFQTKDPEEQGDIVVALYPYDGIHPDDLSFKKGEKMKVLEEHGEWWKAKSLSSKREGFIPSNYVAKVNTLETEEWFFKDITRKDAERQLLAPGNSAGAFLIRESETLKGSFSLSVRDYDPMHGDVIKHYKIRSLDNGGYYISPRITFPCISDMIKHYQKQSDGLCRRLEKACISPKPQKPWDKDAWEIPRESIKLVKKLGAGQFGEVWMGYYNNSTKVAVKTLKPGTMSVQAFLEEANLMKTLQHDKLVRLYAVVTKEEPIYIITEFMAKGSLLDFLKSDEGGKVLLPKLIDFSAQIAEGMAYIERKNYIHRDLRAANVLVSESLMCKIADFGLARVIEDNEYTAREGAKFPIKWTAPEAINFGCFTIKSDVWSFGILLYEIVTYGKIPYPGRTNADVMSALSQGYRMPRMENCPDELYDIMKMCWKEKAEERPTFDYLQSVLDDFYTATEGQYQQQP

IC50 (LYN (m)) | IC50 (Lyn kinase (human)) | IC50 (EGFR) | IC50 (c-Src kinase (human)) | inhibition at 1 µM (LYN (m)) | inhibition at 1 µM (Lyn kinase (human); [1]) | inhibition at 1 µM (c-Src kinase (human)) | IC50 (HER-2) | inhibition at 1.6 µM (Lyn kinase (human); (h), test concentration (2) 1.6 μM, read-out: LYN percent inhibition (h)) | inhibition at 2 µM (EGFR; test concentration of 2 μM, read-out: EGFR percent inhibition) | c-SRC percent inhibition (c-Src kinase (human); test concentration not marked (1 μM or 1.6 μM)) | Structure (SMILES)
 |  | 33.3 nM |  | 10% | -5% | 15% | 2.06 µM |  |  |  | N#Cc1cnc2nc(Nc3ccc(CN4CCCC4)cc3)sc2c1Nc1ccc(OCc2cccc(F)c2)c(Cl)c1 [Cpd 24, 7-[3-chloro-4-(3-fluoro-benzyloxy)-phenylamino]-2-(4-pyrrolidin-1-ylmethyl-phenylamino)-thiazolo[4,5-b]pyridine-6-carbonitrile]
790 nM | 224 nM | 43.3 nM | 1410 nM |  |  |  | 92.7 µM |  |  |  | CN(C)Cc1ccc(Nc2nc3ncc(C#N)c(Nc4cccc5c4OC(F)(F)O5)c3s2)cc1 [Cpd 25, 7-(2,2-difluoro-benzo[1,3]dioxol-4-ylamino)-2-(4-dimethylaminomethyl-phenylamino)-thiazolo[4,5-b]pyridine-6-carbonitrile]
 |  |  |  |  |  |  | > 100 µM | 37% | 0% | 0% | CN1CCN(Cc2ccc(Nc3nc4ncc(C#N)c(Nc5ccc(Oc6ccccc6)cc5)c4s3)cc2)CC1 [Cpd 51, 2-[4-(4-methyl-piperazin-1-ylmethyl)-phenylamino]-7-(4-phenoxy-phenylamino)-thiazolo[4,5-b]pyridine-6-carbonitrile]

The next lines start with the compound.

Structure (SMILES) | IC50 (LYN (m)) | IC50 (Lyn kinase (human)) | IC50 (EGFR) | IC50 (c-Src kinase (human)) | inhibition at 1 µM (LYN (m)) | inhibition at 1 µM (Lyn kinase (human); [1]) | inhibition at 1 µM (c-Src kinase (human)) | IC50 (HER-2) | inhibition at 1.6 µM (Lyn kinase (human); (h), test concentration (2) 1.6 μM, read-out: LYN percent inhibition (h)) | inhibition at 2 µM (EGFR; test concentration of 2 μM, read-out: EGFR percent inhibition) | c-SRC percent inhibition (c-Src kinase (human); test concentration not marked (1 μM or 1.6 μM))
N#Cc1cnc2nc(Nc3ccc(CN4CCOCC4)cc3)sc2c1Nc1c(Cl)ccc2c1OCO2 [Cpd 20, 7-(5-chloro-benzo[1,3]dioxol-4-ylamino)-2-(4-morpholin-4-ylmethyl-phenylamino)-thiazolo[4,5-b]pyridine-6-carbonitrile] | 9 nM | 11 nM | 378 nM and 941 nM | 11 nM |  |  |  |  |  |  | 
C#Cc1cccc(Nc2c(C#N)cnc3nc(Nc4ccc(S(=O)(=O)NCCCN(C)C)cc4)sc23)c1 [Cpd 23, 4-[6-cyano-7-(3-ethynyl-phenylamino)-thiazolo[4,5-b]pyridin-2-ylamino]-N-(3-dimethylamino-propyl)-benzenesulfonamide] |  |  | 20.4 nM |  | 42% | 8% | -2% |  |  |  | 
